Here are results for 8 compounds from patent publication US11952364B2, “TRK inhibitors useful as anticancer drugs” (TYLIGAND BIOSCIENCE (SHANGHAI) LIMITED, priority 2018, dated 2024).

Each structure is given as a SMILES string.

This assay deals with Ba/F3 ETV6-NTRK3 cells. Briefly: Proliferation of Ba/F3 ETV6-NTRK3 cells (CellTiter-Glo). Format: cell-based. The note with it: Mus musculus, BaF3; Table 3; 72 hours. From the text: Ba/F3 ETV6-NTRK3 is a stable transgenic cell line constructed by KYinno Biotechnology Co., Ltd. on mouse primary B cell Ba/F3 wherein NTRK3 is highly expressed and fused with ETV6 to form ETV6-NTRK3. • [Test method]: Promega's CellTiter-Glo® Luminescent Cell Viability Assay kit was used to evaluate the inhibitory activity of the compounds on the proliferation of Ba/F3 ETV6-NTRK3 cells. • [Instrument]: Spectramax M3 multifunctional microplate reader from Molecular Devices. • [Test materials]: Ba/F3 ETV6-NTRK3 cell line (constructed by KYinno Biotechnology Co., Ltd. (Beijing)), 96-well transparent flat-bottomed black-walled cell culture plate (Corning, cat #3603), RPMI-1640 media (GE, cat #SH30027.01), fetal bovine serum FBS (Thermo Fisher, cat #10099-141), CellTiter-Glo® Luminescent Cell Viability Assay kit (Promega, cat #G7572), PBS (Solarbio, cat #P1020), DMSO (Sigma, cat #D2650). • [Experimental procedure]: When resuscitating Ba/F3 ETV6-NTRK3 cells, the freezing tube was quickly shaken in a 37° C. water bath to melt within 1 minute. The thawed cell suspension was mixed uniformly with RPMI1640 medium containing 10% FBS, centrifuged at 1000 rpm for 5 minutes, and the supernatant discarded. 5 mL of complete medium (RPMI1640 medium with 10% FBS) was taken to resuspend the cell pellets, charged into a cell culture flask with a bottom area of 25 cm^2, and incubated in a cell incubator at 37° C., 95% humidity and 5% CO2. Cells were allowed to passage when the number of cells reached about 10^6 cells/mL. For cell passage, the old cell suspension was directly pipetted evenly, 1/5 of the cell suspension was kept, 4 mL of new complete medium was added, after pipetting evenly, the cell flask was placed in the cell incubator for further culturing. Cell plating was performed when the number of cells reached about 10^6 cells/mL again. For cell plating, 1/5 of the cell suspension was kept for further culturing as in the cell passage method, and the remaining 4/5 of the cell suspension was placed in a 15 mL centrifuge tube, detected for cell viability by Trypan blue exclusion method to ensure that cell viability was above 90%. A cell suspension with a density of 5.56×10^4 viable cells/mL was prepared with complete medium, and 90 μL of such cell suspension was added to a 96-well cell culture plate to obtain the cell density of 5000 viable cells/mL in the cell culture plate. A control group containing no cells, no compound and only complete medium (i.e. culture medium control) and a control group containing no compound but containing cells (i.e. cell control) were set. The cell plate was placed in a cell incubator overnight. The 10 mM compound stock solution in DMSO was first serially diluted with DMSO at a dilution factor of 3.16 times, to obtain 9 concentrations, and the 10th concentration was set as DMSO control without compound. Then, PBS was used to dilute the DMSO solutions of compounds of different concentrations, at a dilution factor of 100 times, so that the DMSO concentration in the compound solution of each concentration was 1%. Finally, 10 μL of each of the above solutions was added to the corresponding cell culture plate, so that the initial compound concentration was 10 μM, with the remaining concentrations being successively diluted at a dilution factor of 3.16 times, and the DMSO content in the cell culture plate was 0.1%. The cell plate was placed in a cell incubator and cultured for 72 hours. For endpoint detection, the CellTiter-Glo reagent was melted, and the cell plate was moved to room temperature to equilibrate for 30 minutes, added with 100 μL of CellTiter-Glo for each well, and shaken on an orbital shaker for 5 minutes to fully lyse the cells. The plate was kept at room temperature for 20 minutes to stabilize the luminescence signal, and the luminescence value of each well was scanned with a multi-functional microplate reader at full wavelength. • [Test samples]
In general terms: Cellular ATP, detected with luciferase, serves as a proxy for viable cell number.
In turn, `Cn1ncc2cc(Oc3ccc(NC(=O)c4ccc(C(F)(F)F)n(-c5ccc(F)cc5)c4=O)cc3F)c(-c3cn[nH]c3)cc21` [Example 1, N-(3-fluoro-4-(1-methyl-6-(1H-pyrazol-4-yl)-1H-indazol-5-yloxy)phenyl)-1-(4-fluorophenyl)-6-trifluoromethyl-2-oxo-1,2-dihydmpyridine-3-carboxamide monomethanesulfonate] showed an IC50 of 435 nM.

In turn, `Cn1ncc2cc(Oc3ccc(NC(=O)c4ccc(C5CC5)n(-c5ccc(F)cc5)c4=O)cc3F)c(-c3cn[nH]c3)cc21` [Example 2, N-(3-fluoro-4-(1-methyl-6-(1H-pyrazol-4-yl)-1H-indazol-5-yloxy)phenyl)-1-(4-fluorophenyl)-6-cyclopropyl-2-oxo-1,2-dihydmpyridine-3-carboxamide] came in with a concentration for half-maximal inhibition (IC50) of 94 nM. Under `CCn1ncc2cc(Oc3ccc(NC(=O)c4ccc(C)n(-c5ccc(F)cc5)c4=O)cc3F)c(-c3cn[nH]c3)cc21` [Example 3, N-(3-fluoro-4-(1-ethyl-6-(1H-pyrazol-4-yl)-1H-indazol-5-yloxy)phenyl)-1-(4-fluorophenyl)-6-methyl-2-oxo-1,2-dihydmpyridine-3-carboxamide] stands 663 nM. To `Cc1ccc(C(=O)Nc2ccc(Oc3cc4cnn(C(C)C)c4cc3-c3cn[nH]c3)c(F)c2)c(=O)n1-c1ccc(F)cc1` [Example 4, N-(3-fluoro-4-(1-isopropyl-6-(1H-pyrazol-4-yl)-1H-indazol-5-yloxy)phenyl)-1-(4-fluorophenyl)-6-methyl-2-oxo-1,2-dihydmpyridine-3-carboxamide] belongs 762 nM; to `CCc1ccc(C(=O)Nc2ccc(Oc3cc4cnn(C)c4cc3-c3cn[nH]c3)c(F)c2)c(=O)n1-c1ccc(F)cc1` [Example 5, N-(3-fluoro-4-(1-methyl-6-(1H-pyrazol-4-yl)-1H-indazol-5-yloxy)phenyl)-1-(4-fluorophenyl)-6-ethyl-2-oxo-1,2-dihydropyridine-3-carboxamide], 60 nM; to `CC(C)c1ccc(C(=O)Nc2ccc(Oc3cc4cnn(C)c4cc3-c3cn[nH]c3)c(F)c2)c(=O)n1-c1ccc(F)cc1` [Example 6, N-(3-fluoro-4-(1-methyl-6-(1H-pyrazol-4-yl)-1H-indazol-5-yloxy)phenyl)-1-(4-fluorophenyl)-6-isopropyl-2-oxo-1,2-dihydropyridine-3-carboxamide], 284 nM.

Compound `O=C(Nc1cnn2ccc(N3CCC[C@@H]3c3cc(F)ccc3F)nc12)N1CC[C@H](O)C1` [LOXO-101, Larotrectinib, reference compound] yielded a half-inhibitory concentration (IC50) of 5 nM.

For the compound `Cc1ccc(C(=O)Nc2ccc(Oc3cc4cnn(C)c4cc3-c3cn[nH]c3)c(F)c2)c(=O)n1-c1ccc(F)cc1` [Merestinib, reference compound], the concentration for half-maximal inhibition (IC50) was 684 nM.

For orientation: IC50 means the concentration that inhibits the measured activity by half. Higher therefore signals a need for much substance.
